Assays:
Male SD rats = assay: Open field locomotor activity in rats (CNS activity), stereotypic counts; type: in vivo, rat; settings: 4 hour monitoring, vehicle 3022
From the text: (§1) Male Sprague Dawley rats were ordered from Charles River (225-250 gm upon arrival). They were fed standard chow diet (Purina 5001) and housed 2 per cage. Male C57bl/6j mice were ordered from Charles River at 22-25 g and housed 3 per cage. They were fed standard chow (Purina 5001). All animals were housed in a temperature-controlled room with 12-hour light/dark cycle. Animals were given food and water ad libitum, except as noted.
(§2) Test compounds were formulated in 10% PEG400 and 10% solutol. Test compounds were administered by oral gavage (5 ml kg^−1).
Male SD rats were weighed and transferred to the Activity Chambers with access to water. After a 2-hr acclimation period, the rats were dosed with vehicle or test compound (@3 and 10 mg/kg). The Activity Chamber monitoring software program was initiated and automatically recorded rat activity in each chamber for a period of 4 hours. At the end of the 4 hour monitoring period, the software was stopped and the rats were removed from the activity chambers. The rats were anesthetized and blood samples were obtained via retro-orbital puncture to determine plasma concentration of compounds. The rats were immediately euthanized with CO2 and the brains removed, washed with PBS, frozen on dry ice and stored at −80° C. for receptor occupancy (RO) analysis. […]

[1] = Chronic DIO mouse: plasma and brain concentrations; type: in vivo; settings: for Brain concentration (Std Dev): DIO mice, second study
Procedure: Male 14-20-week old diet-induced obese mice were ordered from Taconic. Mice were started on a 60% fat diet (D12492, Research Diets, New Brunswick, N.J.) at 6 weeks of age. Mice were single-housed.
as §2
The test compound was formulated in 10% PEG400 and 10% solutol. DIO mice received vehicle, test compound (@1, 3 and 10 mg/kg) daily for 26 days. At the end of the experiment, the mice were euthanized and blood and tissues were collected.
Compound #44 was tested according to the procedure as described above, with results as listed in Table BIO-4A through Table BIO4-G, below.
In a second study, Compound #44 was tested according to the procedure as described above, with results as listed in Tables BIO-5A through 5G, below.

hCB1-CHO-K1 membranes = hCB1-CHO-K1 membranes (Homo sapiens, UniProt P21554); assay: CB-1 membrane binding assay ([3H] CP 55,940 displacement)
Sequence of hCB1-CHO-K1 membranes (P21554 whole entry): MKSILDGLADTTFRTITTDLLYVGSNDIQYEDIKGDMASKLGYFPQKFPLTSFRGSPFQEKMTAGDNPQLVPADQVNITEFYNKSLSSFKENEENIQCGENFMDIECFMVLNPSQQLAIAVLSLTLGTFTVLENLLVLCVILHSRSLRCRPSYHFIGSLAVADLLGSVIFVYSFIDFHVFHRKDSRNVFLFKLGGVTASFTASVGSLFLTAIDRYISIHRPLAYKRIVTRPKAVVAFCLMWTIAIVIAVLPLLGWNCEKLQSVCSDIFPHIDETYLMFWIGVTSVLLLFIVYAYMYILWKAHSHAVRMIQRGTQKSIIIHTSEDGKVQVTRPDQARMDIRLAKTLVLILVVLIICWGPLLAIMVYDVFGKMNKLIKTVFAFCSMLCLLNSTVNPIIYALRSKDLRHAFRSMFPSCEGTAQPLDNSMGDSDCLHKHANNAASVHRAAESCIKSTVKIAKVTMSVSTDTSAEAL

hCB2-HEK293 membranes = target: T1, hCB2-HEK293 membranes (Homo sapiens, UniProt P34972); assay: CB-2 membrane binding assay ([3H] CP 55,940 displacement); settings: mean where tested more than once
T1 construct: expressed in transfected cells; host or cells: HEK293
T1 sequence (P34972 whole entry): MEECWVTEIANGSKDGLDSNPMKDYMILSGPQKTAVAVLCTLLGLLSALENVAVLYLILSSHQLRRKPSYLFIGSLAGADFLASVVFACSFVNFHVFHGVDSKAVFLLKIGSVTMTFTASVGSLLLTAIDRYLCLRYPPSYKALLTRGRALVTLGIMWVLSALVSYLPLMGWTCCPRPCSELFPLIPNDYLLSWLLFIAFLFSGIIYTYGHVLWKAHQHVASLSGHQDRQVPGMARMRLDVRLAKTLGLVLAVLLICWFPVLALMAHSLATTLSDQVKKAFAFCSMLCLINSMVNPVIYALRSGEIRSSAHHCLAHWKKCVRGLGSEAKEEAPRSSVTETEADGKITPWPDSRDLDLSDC

[2] = Mouse Fast PK/BBB (plasma and brain concentration); type: in vivo, Male C57bl/6j mice; settings: 1 hr after oral dosing; 30 mg/kg or 20 mg/kg; N=3
From the text: as §1, §2
Male C57bl/6j mice were dosed with test compounds at 30 mg/kg. Plasma was collected via retro-orbital bleeding at 1 hr and 4 hrs after dosing. […] Wet brain weight was recorded before freezing. Brains were homogenized in saline and sent for analysis for determination of concentration of test compound.
Table BIO-3 below present results for representative compounds of the present invention, tested according to the procedure as described above. Each compound was tested in three animals (N=3) and administered PA at 20 mg/kg

[3] = target: T2, Human CB2R (Cannabinoid receptor 2) (Homo sapiens, UniProt P34972); assay: CB-2 in vitro cAMP (HTRF) functional assay; type: cell-based; settings: mean where tested more than once
T2 construct: host or cells: HEK-293
T2 sequence (P34972 whole entry): as above
From the text: CB1 and CB2 receptors are Gi-coupled GPCR. Activation of CB1 and CB2 receptors results in a decrease in cAMP production. An inverse agonist of the CB1 or CB2 receptor results in the opposite effect, an increase of cAMP production. The principle of this assay is based on HTRF® technology (Homogeneous Time-Resolved Fluorescence). The method is a competitive immunoassay between native cAMP produced by cells and the cAMP labeled with the fluorophore d2. The tracer binding is quantified by a Mab anti-cAMP labeled with Eu3+ TBP-NHS Cryptate (supplied as part of the assay kit). The specific signal (i.e. energy transfer) is inversely proportional to the concentration of cAMP in the standard or sample.
Human CB1R (Cannabinoid receptor 1) was stably transfected in HEK-293 cells (DiscoveRx, cat: 93-0200C1). Human CB2R (Cannabinoid receptor 2) was stably transfected in HEK-293 cells (DiscoveRx, cat: 93-0201C1). Cell cultures were maintained in media: DMEM (Invitrogen Cat#12430-054) supplemented with 10% HI FBS (Invitrogen Cat#16140-071), 1% L-glutamine (Invitrogen Cat#25030-081), 0.2 mg/ml Hygromycin B (Invitrogen Cat#10687-010), 600 μg/mL G418 (Invitrogen Cat#10131-035), and 1× Penn/Strep (Invitrogen 15140-122). After cell expansion, aliquots were cryo-stored in media containing 5% DMSO (Pierce Cat#20684).
One day prior to experiments media was warmed to 37° C. and the cryo-stored cells were thawed in a 37° C. water bath. The cells were then added to media (10× volume) and the mixture was centrifuged at 1000 RPM for 5 min. The supernate was removed and the cells were re-suspended in media. A sample of the cell suspension was evaluated on a Cedex XS automated cell counter (Innovatis Systems) to determine viable cells/ml. Additional media was added to the cells to achieve a final cell density of 4E5 cells/mL. The cells were then plated into 384 well PDL white solid bottom plates (Greiner, Cat#781945) at 20 μL per well using a Multidrop (Thermo Scientific). Cells were removed from Row P (location of cAMP standards). Two columns of cells were plated into a clear bottom 384 well PDL coated plate (Greiner, Cat#781944) to view confluence the day of the assay. The cell plates were lidded and stored for 15 minutes in a hood, then transferred to an incubator (37° C., 5% CO2, 95% humidity) overnight.
DMSO was added to all wells of 384 well V bottom polystyrene plate (Greiner, Cat#781280) except to columns 1 and 13, rows O and P and wells M13-M23 and N13-N23. Test compounds (60 μL, 10 mM) were added to Column 1 and 13 (A1 through N1 and A13 through L13). Test compounds were serially diluted 1/3 by transferring and mixing 20 μl sample with 40 μL DMSO.
DMSO (40 μL) was added to wells of 384 well V bottom polystyrene plate: O2 through O11, M14 through M23, N14 through N23, and O14 through O23. AM630 (also known as [6-iodo-2-methyl-1-[2-(4-morpholinyl)ethyl]-1H-indol-3-yl](4-methoxyphenyl)-methanone, Cayman Chemical, Cat#10006974) (60 μL, 10 mM) was added to O1; and 1-(2,4-dichlorophenyl)-7-[(4-fluorophenyl)methylene]-4,5,6,7-tetrahydro-N-1-piperidinyl-1H-indazole-3-carboxamide (60 μL, 10 mM) was added to N13. The control was serially diluted 1/3 by transferring and mixing 20 μl sample with 40 μL DMSO. This process resulted 11 doses per control, 10 mM to […].
Cells plated the day prior to the assay in clear bottom plates were viewed on an inverse microscope to ensure confluency in the range of 60-75%. […]

| Stereotypic Counts (MEAN) (Male SD rats; n=8, first #44 row, dose not printed (presumably 3 mg/kg)) | Stereotypic Counts (MEAN) (Male SD rats; n=8, second #44 row, dose not printed (presumably 10 mg/kg)) | Plasma Concentration (Std Dev) ([1]; 1 mg/kg daily, 2 Hours Post Dose, Day 16, first study) | Brain concentration (Std Dev) ([1]; 0.3 mg/kg, Day 2, 2 hours post dose) | Brain concentration (Std Dev) ([1]; 0.3 mg/kg, Day 23, 2 hours post dose) | Brain concentration (Std Dev) ([1]; 1 mg/kg, Day 2, 2 hours post dose) | Brain concentration (Std Dev) ([1]; 3 mg/kg, Day 2, 2 hours post dose) | IC50 (hCB1-CHO-K1 membranes) [µM] | IC50 (hCB2-HEK293 membranes) [µM] | BRAIN Mean Conc. ± Std. Dev [2] | EC50 [3] [µM] | SMILES |
| --- | --- | --- | --- | --- | --- | --- | --- | --- | --- | --- | --- |
| 3250 | 2850 | 431 (62) ng/mL | BLOQ* | BLOQ** | BLOQ* | BLOQ* | 0.0012 | 0.053 | – | – | O=c1cc(NC2CCN(S(=O)(=O)C(F)(F)F)CC2)c2cc(C(c3ccc(Cl)cc3)c3ccc(Cl)cc3)ccc2[nH]1 [Compound #44, 6-(bis(4-chlorophenyl)methyl)-4-(1-(trifluoromethylsulfonyl)piperidin-4-ylamino)quinolin-2(1H)-one] |
| – | – | – | – | – | – | – | – | – | BLOQ ± NA | > 10 | O=c1cc(Nc2ccc(C(F)(F)F)cc2)c2cc(C(c3ccc(Cl)cc3)c3ccc(Cl)cc3)ccc2[nH]1 [Compound #59, 6-(bis(4-chlorophenyl)methyl)-4-((4-(trifluoromethyl)phenyl)amino)quinolin-2(1H)-one] |

From US9464055B2, “Quinoline derivatives useful as CB-1 inverse agonists” (JANSSEN PHARMACEUTICA NV, priority 2014, dated 2016)
